Reference: US20110092600A1, “PHARMACEUTICAL COMPOSITIONS COMPRISING AMINOCYCLOHEXANE DERIVATIVES” (MERZ PHARMA GMBH & KGAA, priority 2008, published 2011)

Legend:
[1] = Isothermal titration calorimetry (ITC) of complexation with HPBCD; assay type: physicochemical
Method: (§1) Complexes between neramexane mesylate and either hydroxypropyl-beta-cyclodextrin (HPBCD; grade: Kleptose™ HPB) or hydroxypropyl-gamma-cyclodextrin (HPGCD; grade: Cavasol™ W8 HP Pharma) are formed and investigated by isothermal titration calorimetry (ITC). The experiments are performed on a Microcal MCS-ITC instrument. The procedure consists of iteratively adding small portions of a test solution (here: a neramexane mesylate solution) through a motorised microlitre syringe to a receptor solution (here: a cyclodextrin solution) located in the calorimeter. Upon complexation, an exothermic or endothermic signal is produced which represents the sum of all thermal events including complexation itself, but also heats of dilution or (de)protonation. The titration curves are evaluated with the Microcal Origin software V2.9 with its original data evaluation module for titration calorimetric evaluations.
(§2) The experiments are carried out using aqueous phosphate buffer of pH 6 as a solvent. Solutions of neramexane mesylate, HPBCD, and HPGCD of various concentrations are prepared, and a number of titrations are conducted using different maximal molar ratios of neramexane to cyclodextrin (after complete addition of the drug substance), ranging from 1.25 to 5. Titrations with solvent solutions alone and in combination with cyclodextrin solution are performed to obtain curves indicating the heats of dilution, which may be used as baseline data for the correction of the complexation curves.

[2] = Isothermal titration calorimetry (ITC) of complexation with HPGCD; assay type: physicochemical
Method: as §1, §2

[3] = final molar ratio 1.25, aqueous phosphate buffer pH 6
[4] = final molar ratio of neramexane to cyclodextrin 5, aqueous phosphate buffer pH 6
[5] = final molar ratio 1.8, aqueous phosphate buffer pH 6

Compound: CC1(C)CC(C)(C)CC(C)(N)C1 [neramexane, 1-amino-1,3,3,5,5-pentamethylcyclohexane]
- thermal nature of complexation ([1]; aqueous phosphate buffer pH 6): exothermic
- equilibrium constant [1, 3]: 413 M⁻¹
- stoichiometry of binding (of neramexane per cyclodextrin molecule) [1, 3]: 0.4
- equilibrium constant [1, 4]: 788 M⁻¹
- stoichiometry of binding (of neramexane per cyclodextrin molecule) [1, 4]: 0.84
- thermal nature of complexation ([2]; aqueous phosphate buffer pH 6): endothermic
- equilibrium constant [2, 5]: 112 M⁻¹
- stoichiometry of binding [2, 5]: 0.93
